These results are taken from patent US20230416329A1, “A PEPTIDE WITH DISULFIDE BONDS AND INHIBITORY ACTIVITY AGAINST SERINE PROTEASES, DERIVED HYBRID PEPTIDES THEREOF, AND USES THEREOF” (INSTITUTE OF MATERIA MEDICA , CHINESE ACADEMY OF MEDICAL …, priority 2020, published 2023).

The structures appear in SMILES notation.

The nature of data set [1]: Stability of GLP-1 and its analogues in human serum. Particulars: 25% (v/v) human serum; for Remaining peak area (%)/human serum: 0.0 h, peptide 0.03 mM, 37° C.; for remaining at 0.5 h, 0.03 mM / remaining at 2 h, 0.03 mM / remaining at 4 h, 0.03 mM / remaining at 8 h, 0.03 mM / remaining at 12 h, 0.03 mM: human, pH 7.
Experimental: The amount of the prototype peptide at 0 h was taken as 100%. At different time point, 100 μL aliquots was taken out, and 300 μL precooled anhydrous methanol was added to terminate the reaction. The remaining percentage (%) of the peptide relative to the prototype peptide at that time point was analyzed by reverse phase high performance liquid chromatography. The experiment was performed with three replicates, and data were expressed as “mean±standard deviation”. The sample was subjected to high-speed centrifugation, supernatant extraction, and freeze drying, followed by dissolution in 50% (v/v) methanol/water solution, and analyzed by reverse phase high performance liquid chromatography. The experiment was performed with three replicates, and data were expressed as “mean±standard deviation”.
Invert and mix thoroughly, then leave at −20° C. overnight. At the same time, take three sterile EP tubes and add 25 μL of human serum, 75 μL of 50 mM Tris-HCl buffer (pH7.0), and 300 μL of pre-cold absolute methanol. Invert and mix thoroughly, then leave at −20° C. overnight as a negative control, so as to eliminate the interference of proteins or peptides contained in human serum at the peak time of the target peptide after methanol precipitation.
Arrange a certain volume of human serum in another sterile EP. Incubate the EP tubes containing peptides and serum at 37° C. for 10 min, and add 137.5 μL of human serum to each EP tube containing peptides and mix well. […] Start timing and remove 100 μL of reaction solution at 0.5, 2.0, 4.0, 8.0, and 12.0 h later, respectively. Add 300 μL of pre-cold absolute methanol. Invert and mix thoroughly, then leave at −20° C. overnight. […] There are three replicates at each time point, and the peak area of the peptide at each time point is detected using reverse phase high-performance liquid chromatography (RP-HPLC). The ratio of the remaining peak area of the sample at detection time T (h) to the peak area of the prototype peptide at 0 h is calculated as the remaining percentage (%) of the peptide.
Another data set has as its target elastase (Sus scrofa, UniProt P00772). The data set can be described thus: in vitro. As to conditions: isolated enzyme elastase; for Remaining peak area (%)/elastase: 1 h, 60 μM, pH 8; for remaining at 0.025 h, 60 μM / remaining at 0.05 h, 60 μM / remaining at 0.075 h, 60 μM / remaining at 0.1 h, 60 μM / remaining at 0.15 h, 60 μM / remaining at 0.25 h, 60 μM / remaining at 0.5 h, 60 μM / remaining at 1 h, 60 μM: pH 8, Remaining peak area (%)/elastase. As for the experimental part:
FIG. 19. […] At different time point, 25 μL aliquots was taken out, and 10% (v/v) TFA was added to terminate the reaction.
(§1) Mix by centrifugation at 8000 rpm for 30 seconds.
Arrange a certain volume of 0.5 μg/μL elastase solution in another sterile EP. Incubate the EP tubes containing peptides and enzymes at 37° C. for 5 min, and then add 4.5 μL of elastase solution to each EP tube containing peptides and mix well. Start timing and remove 25 μL of reaction solution at 1.5, 3.0, 4.5, 6.0, 9.0, 15.0, 30.0, and 60.0 min later, respectively. Add 3.75 μL of 10% TFA to terminate the reaction and mix well by centrifugation at 8000 rpm for 30 seconds.
Referring to the experimental method in Example 5, in vitro stability of salmon Calcitonin analogs with oral administration activity to the enzymatic hydrolysis by trypsin, chymotrypsin and elastase were performed.
Referring to the experimental method in Example 5, in vitro stability of IL-17A inhibitory peptides towards the enzymatic hydrolysis by trypsin, chymotrypsin and elastase were performed.

Another data set addresses DPP-IV (Homo sapiens, UniProt P27487). The data set can be described thus: Tolerance of GLP-1 and its analogues to DPP-IV (RP-HPLC remaining peak area). Type of data set: in vitro ADME. Particulars: peptide 25 μM, DPP-IV 0.5 ng/μL, 37° C.; for Remaining peak area (%)/DPP-IV: 0.0 h; for remaining at 0.5 h, 25 μM / remaining at 2 h, 25 μM / remaining at 4 h, 25 μM / remaining at 8 h, 25 μM / remaining at 12 h, 25 μM: isolated DPP-IV enzyme in buffer, pH 8. The protocol:
as §1
(2) Arrange a certain volume of 0.005 μg/μL DPP-IV solution in another sterile EP.

Chain of elastase (P00772 27-266): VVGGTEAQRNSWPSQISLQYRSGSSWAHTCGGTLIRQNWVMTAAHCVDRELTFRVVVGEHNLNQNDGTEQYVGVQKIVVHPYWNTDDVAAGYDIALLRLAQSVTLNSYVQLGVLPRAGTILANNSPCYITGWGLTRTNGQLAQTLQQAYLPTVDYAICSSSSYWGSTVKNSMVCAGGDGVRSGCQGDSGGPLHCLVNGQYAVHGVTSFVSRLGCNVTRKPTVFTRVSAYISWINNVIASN
Chain of DPP-IV (P27487 whole entry, species assumed): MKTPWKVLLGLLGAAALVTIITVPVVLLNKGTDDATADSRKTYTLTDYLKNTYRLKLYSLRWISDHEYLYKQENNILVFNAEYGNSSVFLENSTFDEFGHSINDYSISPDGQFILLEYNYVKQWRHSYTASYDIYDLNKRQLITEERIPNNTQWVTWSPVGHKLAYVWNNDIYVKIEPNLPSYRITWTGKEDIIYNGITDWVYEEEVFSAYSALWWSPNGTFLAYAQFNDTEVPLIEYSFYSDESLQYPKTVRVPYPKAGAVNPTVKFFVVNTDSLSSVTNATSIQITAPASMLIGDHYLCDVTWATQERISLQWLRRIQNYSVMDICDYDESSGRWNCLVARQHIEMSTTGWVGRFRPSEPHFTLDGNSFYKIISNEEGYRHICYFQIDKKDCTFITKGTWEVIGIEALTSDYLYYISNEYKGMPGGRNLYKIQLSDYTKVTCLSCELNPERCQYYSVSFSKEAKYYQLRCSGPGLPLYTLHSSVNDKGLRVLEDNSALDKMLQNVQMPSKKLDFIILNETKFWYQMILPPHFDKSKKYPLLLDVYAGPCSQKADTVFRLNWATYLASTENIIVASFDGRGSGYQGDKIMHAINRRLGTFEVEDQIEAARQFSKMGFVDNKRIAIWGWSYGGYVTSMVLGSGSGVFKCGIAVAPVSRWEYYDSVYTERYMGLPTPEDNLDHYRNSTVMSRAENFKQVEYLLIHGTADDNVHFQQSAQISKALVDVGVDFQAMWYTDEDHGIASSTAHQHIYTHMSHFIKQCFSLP

On to `CC[C@H](C)[C@H](NC(=O)[C@H](Cc1ccccc1)NC(=O)[C@H](CCC(=O)O)NC(=O)[C@H](CCCCN)NC(=O)[C@H](C)NC(=O)[C@H](C)NC(=O)[C@H](CCC(N)=O)NC(=O)CNC(=O)[C@H](CCC(=O)O)NC(=O)[C@H](CC(C)C)NC(=O)[C@H](Cc1ccc(O)cc1)NC(=O)[C@H](CO)NC(=O)[C@H](CO)NC(=O)[C@@H](NC(=O)[C@H](CC(=O)O)NC(=O)[C@H](CO)NC(=O)[C@@H](NC(=O)[C@H](Cc1ccccc1)NC(=O)[C@@H](NC(=O)CNC(=O)[C@H](CCC(=O)O)NC(=O)[C@H](C)NC(=O)[C@H](Cc1c[nH]cn1)NC(=O)CNC(=O)CNC(=O)[C@@H](NC(=O)[C@@H]1CCCN1C(=O)[C@@H](NC(=O)CN)[C@@H](C)CC)[C@@H](C)CC)[C@@H](C)O)[C@@H](C)O)C(C)C)C(=O)N[C@@H](C)C(=O)N[C@@H](Cc1c[nH]c2ccccc12)C(=O)N[C@@H](CC(C)C)C(=O)N[C@H](C(=O)N[C@@H](CCCCN)C(=O)NCC(=O)N[C@@H](CCCNC(=N)N)C(=O)NCC(=O)NCC(=O)N[C@@H](CCCCN)C(=O)NCC(=O)N[C@@H](CC(C)C)C(=O)N[C@H]1CSSC[C@@H](C(=O)N[C@@H](CCC(N)=O)C(=O)O)NC(=O)[C@H]([C@@H](C)CC)NC(=O)[C@@H]2CCCN2C(=O)[C@@H]2CCCN2C(=O)[C@H]([C@@H](C)CC)NC(=O)[C@H](CO)NC(=O)[C@H](C)NC(=O)[C@H]([C@@H](C)O)NC1=O)C(C)C` [D-GLP-1-EC12], for which, in data set [1], the “Remaining peak area (%)/human serum” value stood at 100.0 ± 0.0%; the “serum stability (in words)” value is reported as “more stable in serum”; the share remaining at 0.5 h, 0.03 mM is 86.9 ± 3.8%; the share remaining at 2 h, 0.03 mM came out at 79.9 ± 6.2%. Besides, in data set [1], the share remaining at 4 h, 0.03 mM stood at 73.9 ± 1.6%; the share remaining at 8 h, 0.03 mM stood at 72.9 ± 8.2%; the amount remaining at 12 h, 0.03 mM was 53.5 ± 3.7%. Moreover, at elastase, the “Remaining peak area (%)/elastase” value is reported as “about 45%”; the fraction remaining at 0.025 h, 60 μM was determined as 93.2 ± 2.4%; the fraction remaining at 0.05 h, 60 μM amounted to 88.9 ± 1.6%; the share remaining at 0.075 h, 60 μM amounted to 83.3 ± 1%. Besides, on elastase, the share remaining at 0.1 h, 60 μM worked out at 82.7 ± 4.6%; the share remaining at 0.15 h, 60 μM turned out to be 79.8 ± 2.2%; the fraction remaining at 0.25 h, 60 μM is 72.5 ± 1.6%; the fraction remaining at 0.5 h, 60 μM came to 66.1 ± 2.1%. The share remaining at 1 h, 60 μM on elastase turned out to be 49.5 ± 1.1%. Besides, at DPP-IV, the “Remaining peak area (%)/DPP-IV” value is 100.0 ± 0.0%; the fraction remaining at 0.5 h, 25 μM stood at 93.4 ± 0.8%; the amount remaining at 2 h, 25 μM was 92.3 ± 3%; the fraction remaining at 4 h, 25 μM was determined as 91.7 ± 0.6%. Further, on DPP-IV, the fraction remaining at 8 h, 25 μM was 93.3 ± 0.2% and the amount remaining at 12 h, 25 μM came out at 95.1 ± 1.4%.

Consider `CC[C@H](C)[C@H](NC(=O)[C@H](Cc1ccccc1)NC(=O)[C@H](CCC(=O)O)NC(=O)[C@H](CCCCN)NC(=O)[C@H](C)NC(=O)[C@H](C)NC(=O)[C@H](CCC(N)=O)NC(=O)CNC(=O)[C@H](CCC(=O)O)NC(=O)[C@H](CC(C)C)NC(=O)[C@H](Cc1ccc(O)cc1)NC(=O)[C@H](CO)NC(=O)[C@H](CO)NC(=O)[C@@H](NC(=O)[C@H](CC(=O)O)NC(=O)[C@H](CO)NC(=O)[C@@H](NC(=O)[C@H](Cc1ccccc1)NC(=O)[C@@H](NC(=O)CNC(=O)[C@H](CCC(=O)O)NC(=O)[C@H](C)NC(=O)[C@H](Cc1c[nH]cn1)NC(=O)CNC(=O)CNC(=O)[C@@H](NC(=O)[C@@H]1CCCN1C(=O)[C@@H](NC(=O)CN)[C@@H](C)CC)[C@@H](C)CC)[C@@H](C)O)[C@@H](C)O)C(C)C)C(=O)N[C@@H](C)C(=O)N[C@@H](Cc1c[nH]c2ccccc12)C(=O)N[C@@H](CC(C)C)C(=O)N[C@H](C(=O)N[C@@H](CCCCN)C(=O)NCC(=O)N[C@@H](CCCNC(=N)N)C(=O)NCC(=O)NCC(=O)N[C@@H](CCCCN)C(=O)NCC(=O)N[C@@H](CC(C)C)C(=O)N[C@H]1CSSC[C@@H](C(=O)N[C@@H](Cc2ccc(O)cc2)C(=O)O)NC(=O)[C@H](CCC(N)=O)NC(=O)[C@@H]2CCCN2C(=O)[C@@H]2CCCN2C(=O)[C@H]([C@@H](C)CC)NC(=O)[C@H](CO)NC(=O)[C@H](C)NC(=O)[C@H]([C@@H](C)O)NC1=O)C(C)C` [D-GLP-1-EC1], for which, in data set [1], the “Remaining peak area (%)/human serum” value is listed as 100.0 ± 0.0%; the “serum stability (in words)” value is “more stable in serum”; the amount remaining at 0.5 h, 0.03 mM stood at 73.7 ± 3.7%; the fraction remaining at 2 h, 0.03 mM was determined as 63.5 ± 4.8%. Besides, in data set [1], the amount remaining at 4 h, 0.03 mM turned out to be 46.6 ± 6.4%; the fraction remaining at 8 h, 0.03 mM turned out to be 42.4 ± 3.5%; the fraction remaining at 12 h, 0.03 mM came to 27.4 ± 0.3%. Also, at elastase, the share remaining at 0.025 h, 60 μM was 73.1 ± 5%; the amount remaining at 0.05 h, 60 μM is 73.8 ± 2.8%; the fraction remaining at 0.075 h, 60 μM came out at 70.4 ± 2%; the fraction remaining at 0.1 h, 60 μM came to 68.6 ± 2.4%. In addition, at elastase, the amount remaining at 0.15 h, 60 μM turned out to be 66.9 ± 3.9%; the share remaining at 0.25 h, 60 μM came out at 62.1 ± 4.3%; the share remaining at 0.5 h, 60 μM worked out at 58.4 ± 4.6%; the amount remaining at 1 h, 60 μM is 44.5 ± 0.9%. At DPP-IV, the “Remaining peak area (%)/DPP-IV” value amounted to 100.0 ± 0.0%; the amount remaining at 0.5 h, 25 μM was found to be 82.5 ± 0.6%; the fraction remaining at 2 h, 25 μM is 81.2 ± 3.9%; the amount remaining at 4 h, 25 μM was found to be 84 ± 2.2%. Moreover, on DPP-IV, the amount remaining at 8 h, 25 μM worked out at 82.5 ± 1.6% and the fraction remaining at 12 h, 25 μM turned out to be 83.5 ± 0.5%.

With `CC[C@H](C)[C@H](NC(=O)[C@H](Cc1ccccc1)NC(=O)[C@H](CCC(=O)O)NC(=O)[C@H](CCCCN)NC(=O)[C@H](C)NC(=O)[C@H](C)NC(=O)[C@H](CCC(N)=O)NC(=O)CNC(=O)[C@H](CCC(=O)O)NC(=O)[C@H](CC(C)C)NC(=O)[C@H](Cc1ccc(O)cc1)NC(=O)[C@H](CO)NC(=O)[C@H](CO)NC(=O)[C@@H](NC(=O)[C@H](CC(=O)O)NC(=O)[C@H](CO)NC(=O)[C@@H](NC(=O)[C@H](Cc1ccccc1)NC(=O)[C@@H](NC(=O)CNC(=O)[C@H](CCC(=O)O)NC(=O)[C@H](C)NC(=O)[C@H](Cc1c[nH]cn1)NC(=O)CNC(=O)CNC(=O)[C@@H](NC(=O)[C@@H]1CCCN1C(=O)[C@@H](NC(=O)CNC(=O)CNC(=O)[C@H](Cc1ccc(O)cc1)NC(=O)[C@@H]1CSSC[C@H](NC(=O)[C@@H](N)CC(C)C)C(=O)N[C@@H]([C@@H](C)O)C(=O)N[C@@H](C)C(=O)N[C@@H](CO)C(=O)N[C@@H]([C@@H](C)CC)C(=O)N2CCC[C@H]2C(=O)N2CCC[C@H]2C(=O)N[C@@H](CCC(N)=O)C(=O)N1)[C@@H](C)CC)[C@@H](C)CC)[C@@H](C)O)[C@@H](C)O)C(C)C)C(=O)N[C@@H](C)C(=O)N[C@@H](Cc1c[nH]c2ccccc12)C(=O)N[C@@H](CC(C)C)C(=O)N[C@H](C(=O)N[C@@H](CCCCN)C(=O)NCC(=O)N[C@@H](CCCNC(=N)N)C(=O)NCC(=O)NCC(=O)N[C@@H](CCCCN)C(=O)O)C(C)C` [EC1-D-GLP-1], in data set [1], the “Remaining peak area (%)/human serum” value was 100.0 ± 0.0%; the amount remaining at 0.5 h, 0.03 mM was found to be 72.8 ± 0.8%; the share remaining at 2 h, 0.03 mM turned out to be 40.8 ± 4.3%; the share remaining at 4 h, 0.03 mM is 23.4 ± 1.9%. For the same compound, in data set [1], the fraction remaining at 8 h, 0.03 mM was 11.7 ± 2% and the amount remaining at 12 h, 0.03 mM came out at 3.4 ± 0.4%. Moreover, on elastase, the “Remaining peak area (%)/elastase” value stood at 24.2 ± 0.6%; the amount remaining at 0.025 h, 60 μM is 86 ± 5.4%; the share remaining at 0.05 h, 60 μM came out at 81.9 ± 3.9%; the amount remaining at 0.075 h, 60 μM came to 80.3 ± 2%. Further, on elastase, the share remaining at 0.1 h, 60 μM turned out to be 80.1 ± 3.4%; the amount remaining at 0.15 h, 60 μM worked out at 76.2 ± 1.6%; the amount remaining at 0.25 h, 60 μM stood at 70.4 ± 4.5%; the share remaining at 0.5 h, 60 μM was 40.9 ± 1.1%. The fraction remaining at 1 h, 60 μM at elastase is ~20%. Besides, on DPP-IV, the “Remaining peak area (%)/DPP-IV” value was 100.0 ± 0.0%; the fraction remaining at 0.5 h, 25 μM came out at 101 ± 1.7%; the fraction remaining at 2 h, 25 μM stood at 99.6 ± 0.6%; the share remaining at 4 h, 25 μM was 104.5 ± 0.3%. Moreover, on DPP-IV, the amount remaining at 8 h, 25 μM was 97.4 ± 4.2% and the share remaining at 12 h, 25 μM amounted to 93.6 ± 4.9%.
